In patent US20200155526A1, “TARGETING LYSINE DEMETHYLASES (KDMS) AS A THERAPEUTIC STRATEGY FOR DIFFUSE LARGE B-CELL LYMPHOMA” (THE CHILDREN'S MEDICAL CENTER CORPORATION, priority 2017, published 2020):

Legend:
DLBCL cell lines = test: Sensitivity of DLBCL cell lines (CTG viability); type: cell-based
Protocol: For the Cell Titer Glo assays (CTG), between 3000-10,000 cells were plated in a 96 well plate (in triplicates). The cells were allowed to settle for 24 hours before either small molecule(s) or DMSO was added at indicated concentrations. The treatment was performed for indicated days (preferably 2 days for a “snap-shot” experiments). CTG signal was used to assess viability after 2 days according to manufacturer's protocol (Promega Corporation; Madison, Wis.). For OCI-Ly1 sensitivity assay, OCI-Ly1 cells were grown at a density of 1-3×10^6 cells/mL and 3000-10,000 cells were plated in a 96-well plate (in triplicates). The cells were allowed to settle for 24 hours before either the indicated small molecule(s) or DMSO was added at indicated concentrations. CTG signal was used to assess viability after 2 days according to manufacturer's protocol (Promega Corporation; Madison, Wis.). Small molecules used in each experiment are stated in the respective figures along with their concentrations. Results are shown in FIGS. 10, 11, 13, 14, 15, 16 and 22.

OCI-Ly1 = OCI-Ly1 sensitivity assay (CTG viability); type: cell-based, human; settings: for OCI-Ly1 cell viability, Jumonji-inhibitors: OCI-Ly1, range tested, FIG. 5
Protocol: (§1) For the Cell Titer Glo assays (CTG), between 3000-10,000 cells were plated in a 96 well plate (in triplicates). The cells were allowed to settle for 24 hours before either small molecule(s) or DMSO was added at indicated concentrations. The treatment was performed for indicated days (preferably 2 days for a “snap-shot” experiments). CTG signal was used to assess viability after 2 days according to manufacturer's protocol (Promega Corporation; Madison, Wis.).
When performing the comparative test of GSK126 and JIB04, daily readings were taken using the manufacturer's protocol for CTG signal after day 2 (for JIB04), and after day 5 (for GSK126).
For OCI-Ly1 sensitivity assay, OCI-Ly1 cells were grown at a density of 1-3×10^6 cells/mL and 3000-10,000 cells were plated in a 96-well plate (in triplicates). The cells were allowed to settle for 24 hours before either the indicated small molecule(s) or DMSO was added at indicated concentrations. CTG signal was used to assess viability after 2 days according to manufacturer's protocol (Promega Corporation; Madison, Wis.). Small molecules used in each experiment are stated in the respective figures along with their concentrations. Results are shown in FIGS. 10, 11, 13, 14, 15, 16 and 22.

[1] = system: Ikaros family members (IKZF1, IKZF3); test: Immunoblotting of Ikaros family members and BCR signaling components; type: cell-based; settings: JIB04 100 nM or 500 nM, FIG. 20
Protocol: Effect of JIB-04 on Ikaros family members and proximal components of BCR signaling pathway was assayed as follows: One million cells growing under indicated conditions (DMSO or JIB04 treatment; 100 nM or 500 nM) were pelleted by centrifugation at 1000 rpm for 5 min, and then resuspended in RIPA buffer with protease and phosphatase inhibitors. The cell suspension was left on ice for 20 min, and then sonicated using Diagenode water-bath sonicator (15 s. on; 30 s. off, for 15 cycles at max power). After sonication, cell extract was spun at 12000 rpm for 20 min, and the supernatant was collected for immunoblotting. Immunoblotting was performed using standard methods, and the blots were probed using antibodies recognizing indicated proteins.

canonical Wnt signaling = test: Transcriptomics / ChIP-seq GSEA of Wnt signaling; type: cell-based; settings: FIGS. 21A-21C
Protocol: (§2) Three independent cultures of OCI-Ly1 cell lines were grown till the cultures achieved the cell numbers of approximately 1-1.5*10^6 cells/ml, and then cells were treated with either DMSO or two different JIB04 concentrations (150 nM and 500 nM). RNA was isolated using Trizol method, followed by library preparation using NEBUltraII kit (New England Biolabs; Ipswich, Mass.). After high throughput sequencing of the libraries, FastQc was used for filtering and quality control of the reads followed by read alignment to hg19 assembly of the human genome. Reads were counted by TopHat, differential gene expression analysis was performed in Rstudio. GSEA was performed using the desktop client from the Broad Institute, and the GSEA output was visualized using Rstudio.
Cells were fixed with 1% formaldehyde for 10 minutes at room temperature before termination with 0.125 M glycine. Cells were then lysed in ChIP buffer (0.6% SDS, 10 mM EDTA, and 50 mM Tris-HCl, pH 8.1) and cross-linked chromatin was sonicated to obtain DNA fragments of 300-800 bp. […] Libraries were quantified by Qubit (Invitrogen), and sequenced using a HiSeq 2000 (Illumina) to generate 50 bp single end reads.

Jurkat = test: Cell Titer Glo (CTG) viability, JIB04 dose response; type: cell-based; settings: Homo sapiens, 48 h; Jurkat (leukemia), 2 days treatment, FIG. 2; read-out: effective EC50
Protocol: as §1

Toledo = test: as above; type: cell-based; settings: Homo sapiens, 48 h; Toledo (DLBCL), 2 days treatment, FIG. 2
Protocol: as §1

Farage = test: as above; type: cell-based; settings: 48 h; Farage (DLBCL), 2 days treatment, FIG. 2
Protocol: as §1

THP-1 = test: as above; type: cell-based; settings: Homo sapiens, 48 h; THP-1 (leukemia), 2 days treatment, FIG. 2; read-out: effective EC50
Protocol: as §1

HL-60 = test: as above; type: cell-based; settings: Homo sapiens, 48 h; HL-60 (leukemia), 2 days treatment, FIG. 2; read-out: effective EC50
Protocol: as §1

DB = test: as above; type: cell-based; settings: Homo sapiens, 48 h; DB (DLBCL), 2 days treatment, FIG. 2
Protocol: as §1

MV4-11 = test: as above; type: cell-based; settings: Homo sapiens, 48 h; MV4-11 (leukemia), 2 days treatment, FIG. 2; read-out: effective EC50
Protocol: as §1

SUDHL5 = test: as above; type: cell-based; settings: Homo sapiens, SU-DHL-5, 48 h; SUDHL5 (DLBCL), 2 days treatment, FIG. 2
Protocol: as §1

[2] = Cell cycle analysis by propidium iodide staining; type: cell-based, human; settings: different dosage and times, FIG. 7C
Excerpt: Propidium Iodide Flow Cytometry Kit from Abcam was used to perform cell cycle analysis using propidium iodide staining according to manufacturer's protocol.

lymphoma cell lines = test: Annexin V staining apoptosis assay; type: cell-based; settings: FIG. 4A
Protocol: APC-Annexin V was obtained from BD Pharmingen (Franklin Lakes, N.J.), and Annexin V staining was performed as described by the manufacturer.

Ly1 cells [3] = test: In vivo Ly1 luciferase model, bioluminescence imaging; settings: NSG mice, 30 mg/kg, 3 times weekly, intra-peritoneal, 2 weeks post treatment, FIGS. 18A-18B
Protocol: For in vivo studies, Ly1 cells, with a luciferase reporter or […], were administered to Nod/SCID− mice (NSG) (6-8 weeks) were used for tail vein injection. Mice administered the Ly1 cells comprising the luciferase reporter were imaged every week after injection using the IVIS Spectrum In Vivo Imaging System (Perkin Elmer). […] JIB04 was administered three times a week, for two weeks, via intra-peritoneal injection in a mix of 90% sesame oil and 10% DMSO mix (vehicle). Mice were imaged each week and images from pre-treatment and 2-weeks after start of treatment with 30 mg/kg (3× a week) JIB04 are shown in FIG. 18A (pre-treatment) and FIG. 18B (post-treatment).

PARP = test: Production of cleaved PARP; type: cell-based; settings: FIG. 4B
OCI-Ly1 cell lines = test: Transcriptomics (RNA-seq, GSEA) of JIB04-treated cells; type: cell-based, human
Protocol: as §2

Ly1 cells [4] = test: In vivo Ly1 model, Kaplan Meier survival; settings: mice, compared to vehicle treated mice, FIG. 19
Excerpt: Mice administered Ly1 cells without the luciferase reporter were monitored post administration, and fraction surviving was plotted (FIG. 19) using the Kaplan Meier Survival Analysis of Graphpad Prism.

[5] = JIB04 150 nM and 500 nM, FIG. 7A

Cc1cc(/C=C/c2ccc3cc(N(C)C)ccc3[n+]2C)c(C)n1-c1ccccc1 [Pyrvinium]
sensitivity of DLBCL cell lines (DLBCL cell lines; FIG. 22): sensitive to Pyrvinium

CN(C)CCCNC(=O)c1ccc(-c2cc(O)c3ncccc3c2)cc1 [ML324]
OCI-Ly1 cell viability, Jumonji-inhibitors (OCI-Ly1): only JIB04 decreased OCI-Ly1 cell viability significantly

CCOC(=O)c1ccnc(CNCC(=O)N(CC)CCN(C)C)c1 [KDM5-C70]
OCI-Ly1 cell viability, Jumonji-inhibitors (OCI-Ly1): only JIB04 decreased OCI-Ly1 cell viability significantly

O=[N+]([O-])c1cc([N+](=O)[O-])c(/C=C/c2ccc(Cl)c(Cl)c2)cc1/C=C/c1ccc(Cl)c(Cl)c1 [NSC636819]
OCI-Ly1 cell viability, Jumonji-inhibitors (OCI-Ly1): only JIB04 decreased OCI-Ly1 cell viability significantly

Clc1ccc(N/N=C(\c2ccccc2)c2ccccn2)nc1 [JIB04, 5-Chloro-2-[(E)-2-[phenyl(pyridin-2-yl)methylidene]hydrazin-1-yl]pyridine]
sensitivity of GCB and ABC type DLBCL lines (DLBCL cell lines; GCB and ABC type DLBCL): both of those lines are sensitive to JIB04
levels of Ikaros family members [1]: downregulates levels of members of Ikaros family, such as IKZF1 and IKZF3
canonical Wnt signaling (canonical Wnt signaling): inhibits canonical Wnt signaling
EC50 (Jurkat): ~1 µM
EC50 (Toledo): < 0.25 µM
EC50 (Farage): < 0.25 µM
EC50 (THP-1): ~1 µM
EC50 (HL-60): ~1 µM
EC50 (DB): < 0.25 µM
EC50 (MV4-11): ~1 µM
EC50 (SUDHL5): < 0.25 µM
cell cycle [2]: cell cycle arrest
annexin-V positive cells (lymphoma cell lines): increase in annexin-V positive cells in a dose-dependent manner
tumor burden (Ly1 cells [3]): reduction in tumor burden within a short window of treatment
production of cleaved PARP (PARP): increased production of cleaved PARP
CDKN1A expression (OCI-Ly1 cell lines; FIGS. 7B and 7C): significantly upregulated
downregulated pathways (GSEA) (OCI-Ly1 cell lines; [5]): downregulation of “E2F targets” and “Myc-targets”
upregulated pathways (GSEA) (OCI-Ly1 cell lines; [5]): upregulation of “apoptosis” and “p53”-pathways
EC50 (OCI-Ly1; Homo sapiens, 48 h, OCI-Ly1 (DLBCL), 2 days treatment, FIG. 2): < 0.25 µM
OCI-Ly1 cell viability, Jumonji-inhibitors (OCI-Ly1): decreased OCI-Ly1 cell viability significantly
JIB04 potency (CTG signal relative to DMSO) when combined with Ibrutinib (OCI-Ly1; combined with Ibrutinib, compared to JIB04 alone, FIG. 16): increased
reduction of CTG signal, E isomer versus Z isomer (OCI-Ly1; trans configuration (E isomer) relative to cis configuration (Z isomer), FIG. 13): more is effective at reducing CTG signal relative to the cis configuration (Z isomer)
survival (Ly1 cells [4]): increased survival as compared to vehicle treated mice

CCOC(=O)CCNc1cc(N2CCc3ccccc3CC2)nc(-c2ccccn2)n1 [GSK-J4]
OCI-Ly1 cell viability, Jumonji-inhibitors (OCI-Ly1): only JIB04 decreased OCI-Ly1 cell viability significantly

CC(C)c1c(-c2ccccc2)[nH]c2c(C#N)cnn2c1=O [CPI-455]
OCI-Ly1 cell viability, Jumonji-inhibitors (OCI-Ly1): only JIB04 decreased OCI-Ly1 cell viability significantly
